# In publication PMC7663263 (Molecules, 2020):
# What was measured:
# O. ochengi adult female = experiment: Onchocerca ochengi adult female worm assay (MTT/formazan); assay type: cell-based; conditions: 10 μM; females assessed by MTT/formazan assay
# Procedure: Onchocerca ochengi adult worm assays: For O. ochengi worm assays, subcutaneous nodules containing adult O. ochengi worms were removed from the hides of infected cows collected at abattoirs in Douala, Cameroon. Masses were incubated in 4 mL of complete culture medium (RPMI-1640, 5% newborn calf serum, 200 units/mL penicillin, 200 μg/mL streptomycin and 2.5 μg/mL amphotericin B) in standard 12-well culture plates and maintained in a 37 °C, 5% CO2 incubator overnight during which time the adult males migrated out of the masses while the females remained in the nodules. Compound and control wells (worms in 1% DMSO) were tested in quadruplicate and experiments were repeated twice on different days. Cultures were terminated on day 7. […] Adult female worm viability was assessed on day 7 by the standard MTT/formazan assay in which each nodular mass was placed in a well of a 48-well plate containing 500 μL of 0.5 mg/mL MTT (Sigma-Aldrich) in culture medium. Viability was evaluated visually by the extent to which the female worm mass was stained with MTT. Mean percent inhibition of formazan formation was calculated relative to the negative control worm masses after 7 days in culture.
# L. loa microfilariae = L. loa microfilariae motility assay; assay type: cell-based; conditions: 10 μM
# Procedure: O. ochengi microfilariae assays: were collected from the hides of infected cattle and washed prior to adding 10–15 microfilariae to 96-well culture plates containing confluent monkey kidney epithelial cells in 100 μL of media. Microfilariae were run in duplicate and plates were maintained at 37 °C in a 5% CO2 incubator. Microfilariae viability was visually scored using percent reduction of motility using the same scoring criteria used for adult males. Scores were recorded every 24 h after addition of drugs for 5 days using an inverted microscope.
# L. loa microfilariae assays: L. loa microfilariae were purified from the blood of infected individuals using a step-wise Percoll gradient (46% and 43% Percoll) followed by centrifugation at 400 rcf for 20 min. The microfilariae were recovered in the 43% layer then assayed using the same culture conditions and method as the O. ochengi microfilariae.
# [1] = tested on: L. infantum MHOM/MA (BE)/67 amastigotes; experiment: Anti-leishmanial activity, L. infantum amastigotes in primary peritoneal mouse macrophages; assay type: cell-based, Leishmania infantum; conditions: amastigotes in primary peritoneal mouse macrophages, 5 days; read-out: Leishmania infantum IC50 (µM) ± SD
# Procedure: Anti-leishmanial activity: L. infantum MHOM/MA (BE)/67 amastigotes were collected from the spleen of an infected donor hamster and used to infect primary peritoneal mouse macrophages grown in a 96-well plate. After 2 days outgrowth, 5 × 10^5 amastigotes were added to each well and incubated for 2 h at 37 °C. The compounds were subsequently added and the plates were further incubated for 5 days at 37 °C and 5% CO2. Parasite burdens (mean number of amastigotes/macrophage) were microscopically assessed on 500 cells after Giemsa staining and expressed as a percentage of the blank controls. Miltefosine was included as reference drug. The use of laboratory rodents was carried out in accordance to all mandatory guidelines (EU directives, including the Revised Directive 2010/63/EU on the Protection of Animals used for Scientific Purposes that came into force on 1 January 2013, and the declaration of Helsinki in its latest version) and was approved by the Ethical Committee of the University of Antwerp, Belgium [UA-ECD 2011–77 (17-02-2012 and UA-ECD 2015-90].
# RAW 264.7 macrophages = experiment: Cytotoxicity on RAW 264.7 macrophages; assay type: cell-based, murine; conditions: 48 h incubation; read-out: Cytotoxicity on RAW 264.7 Macrophages CC50 (µM) ± SD
# Procedure: Cytotoxicity was evaluated on RAW 264.7 macrophages that were maintained at 37 °C with 5% CO2 in Dulbecco’s Modified Eagle’s Medium (DMEM, Invitrogen, Toulouse, France) supplemented with 100 U/mL penicillin-streptomycin (Invitrogen) and 10% heat-inactivated fetal bovine serum, as previously described. Briefly, cells were plated in 96-well microplates at a density of 2 × 10^4 cells per well. After incubation for 24 h at 37 °C in 5% CO2, the medium was removed from each well and 100 µL of medium containing 2-fold serial dilutions of compounds was added to each well. After 48 h incubation at 37 °C in 5% CO2, 10 µL of 450 µM resazurin was added to each well and further incubated in the dark for 4 h. Cell viability was determined as described above. The cytotoxicity of the compounds was expressed as CC50.
# [2] = tested on: human fetal lung fibroblast (MRC-5); experiment: in vitro
# Procedure: Toxicity in human fetal lung fibroblast (MRC-5) cell line and primary mouse macrophages (PMM) was assessed using a previously reported assay in 96-well microtiter plates. Tamoxifen and miltefosine were included as reference drugs (Table 10).
# For MRC5SV2 or PMM cells, the assays were performed in 96-well microtiter plates, each well containing 10 µL of compound dilution and 190 µL of cell inoculum (3 × 10^4 cells/mL) as reported. Cell growth was compared to untreated controls (100% growth) and assay-media controls (0% growth). After three-day incubation, cell viability was assessed fluorometrically by adding resazurin [50 µL/well of a stock solution in phosphate buffer (50 µg/mL)], incubating for 4 h and measuring fluorescence (ex 550 nm, em 590 nm). The results are expressed as percentage reduction in cell growth as compared to untreated control wells. […] Tamoxifen was included as the reference drug.
# BL3 cells = assay type: cell-based, bovine
# Procedure: (§1) Theileria annulata culture: The TBL3 cell line was derived by in vitro infection of the spontaneous bovine B-lymphosarcoma cell line BL3 with the Hissar stock of T. annulata. B cell characteristics of the lines have been described. The cells are maintained at 37 °C under 5% CO2, in RPMI medium supplemented with 10% FCS, 25 mM Hepes, 4 mM L-glutamine, 100 μg/mL of streptomycin, 100 IU/mL of penicillin and […] 2-mercapthoethanol.
# (§2) Cells were cultured in 12-well plates at an initial density of 200,000 cells per well in duplicate for each condition. […] The cells were cultured in 12-well plates at an initial density of 200,000 cells per well and drug was added every 24 h. To be able to compare the results, a drug-free control was also performed. Cell counting was done at 24, 72 and 96 h using the trypan blue method.
# [3] = tested on: TBL3 cells (BL3 infected with T. annulata); experiment: Proliferation test on Theileria annulata-infected cells (TBL3); assay type: cell-based, bovine / Theileria annulata; conditions: 0.5 μM
# Procedure: as §1, §2
# Human TrxR = conditions: 30 nM enzyme, 20 µM substrate; after 10 min enzyme-NADPH-gold complex preincubation; read-out: IC50 Human TrxR, substrate hTrxC72S; cited from earlier work
smiles,measurement,setting,value
"CC(=O)OCC1OC([S][Au][PH]2(c3ccccc3)C(c3ccccn3)=CC=C2c2ccccn2)C(OC(C)=O)C(OC(C)=O)C1OC(C)=O [GoPI-sugar, 1-thio-β-D-glucopyranose 2,3,4,6-tetraacetato-S-Au{1-phenyl-2,5-di(2-pyridyl)phosphole}]",% Inhibition of Motility O. ochengi Adult Female Day 7,O. ochengi adult female,51%
same,% Inhibition of Motility L. loa mf w/MK2 Cells Day 5,L. loa microfilariae,38%
same,IC50,[1],2.38 µM
same,CC50,RAW 264.7 macrophages,4.35 ± 0.04 µM
same,CC50,[2],0.59 µM
same,CC50,BL3 cells,~0.5 µM
same,time at which the antiproliferative effect occurred,[3]; TBL3 cells,24 h
same,number of TBL3 cells per well,"[3]; first 24 h, initial density 200,000 cells per well","200,000 cells per well"
same,IC50,Human TrxR,0.0043 ± 0.0016 µM
